Read-outs that look alike come from different tables or passages of the source.
What was measured:
Format in all cases: in vivo
Plutella xylostella = test: Pesticidal activity against Plutella xylostella, leaf-dipping method; settings: read-out: larvae mortality rate against Plutella xylostella
Protocol: Cabbage (Daiya) leaves were cut into pieces with a diameter of 5.8 cm, dipped in each of the pesticide compositions prepared in Examples (a 5% acetone solution in which each of the compounds of Synthesis Examples (concentration: 100 ppm) was diluted) for 30 seconds, and sufficiently shade-dried. Then, the shade-dried cabbage leaves were placed in a petri dish (8.8 cm in diameter) covered with a filter paper and repeatedly inoculated 3 times with third instar larvae of Plutella xylostella, 10 larvae per inoculation. In particular, Plutella xylostella larvae used were those which were collected in a place near Gyeongju (Korea) in 2000 and bred in a breeding room for multiple generations. Then, the Plutella xylostella larvae were stored under the conditions of 16 hours of light and 8 hours of dark, 25±1° C., and relative humidity of 50-60%, and the number of live Plutella xylostella larvae was counted 48 hours after the inoculation. Thereafter, the larvae mortality rate was calculated by correcting the density after treatment based on the density before treatment, as shown in Equation 1 and Equation 2 below, and converting the same into the corrected mortality rate for untreated (Reference: A method of computing the effectiveness of an insecticide. J. Econ. Entomol. 18:265˜267. Abbott, 1925).

[1] = system: Frankliniella occidentalis; test: Pesticidal activity against Frankliniella occidentalis, spray method; settings: read-out: mortality rate against Frankliniella occidentalis
Excerpt: A water-soaked filter paper (9.0 cm in diameter) was placed in an insect breeding dish (Lab Guide®) with a diameter of 9.0 cm and a height of 4.0 cm, and then parafilm (width 4.0 cm×height 4.0 cm) was placed thereon. Before treating with a pesticide composition, 10 adult Frankliniella occidentalis were inoculated per petri dish using a No. 4 brush. In this case, Frankliniella occidentalis adults used were those purchased from the Bio Utilization Institute (Andong, Korea). Then, each of the pesticide compositions prepared in Examples (a diluted solution in which each of the compounds of Synthesis Examples (concentration: 100 ppm) was diluted; the solvent=distilled water+acetone 50,000 mg/L+Triton X-100 100 mg/L) was loaded into a 100 mL small sprayer, and sprayed 10-12 times at a distance of 30 cm and a height of 50 cm, and one cotyledons of soybean, which is a host plant, were added one at a time. Then, the Frankliniella occidentalis adults were stored under the conditions of 16 hours of light and 8 hours of darkness, 25±1° C., and relative humidity of 50-60%, and the number of live Frankliniella occidentalis adults was counted 48 hours after the inoculation. Thereafter, the larvae mortality rate was calculated in the same manner as in Test Example 1 above.

Spodoptera litura = test: Pesticidal activity against Spodoptera litura, leaf-dipping method; settings: read-out: mortality rate against Spodoptera litura
Protocol: Cabbage (Daiya) leaves were cut into pieces with a diameter of 5.8 cm, dipped in each of the pesticide compositions prepared in Examples (a 5% acetone solution in which each of the compounds of Synthesis Examples (concentration: 100 ppm) was diluted) for 30 seconds, and sufficiently shade-dried. Then, the shade-dried cabbage leaves were placed in a petri dish (8.8 cm in diameter) covered with a filter paper and repeatedly inoculated 3 times with the second instar larvae of Spodoptera litura, 10 larvae per inoculation. In this case, Spodoptera litura larvae used were those which were purchased from the Bio Utilization Institute (Andong, Korea). Then, the Spodoptera litura larvae were stored under the conditions of 16 hours of light and 8 hours of dark, 25±1° C., and relative humidity of 50-60%, and the number of live Spodoptera litura larvae was counted 48 hours after the inoculation. Thereafter, the larvae mortality rate was calculated in the same manner as in Test Example 1 above.

Measured: mortality at 100 ppm

Cc1cc(C2=NOC(c3cccc(C#N)c3)(C(F)(F)F)C2)ccc1C(=O)NC(=O)C1CC1 (stereo not drawn) [Synthesis Example 4]
≥ 80%: Plutella xylostella; 100 ppm, leaf-dipping, third instar larvae, 48 hours after inoculation | [1]; 100 ppm, spray, adults, 48 hours after inoculation | Spodoptera litura; 100 ppm, leaf-dipping, second instar larvae, 48 hours after inoculation

Cc1cc(C2=NOC(c3cc(C(F)(F)F)cc(C(F)(F)F)c3)(C(F)(F)F)C2)ccc1C(=O)NC(=O)C1CC1 (stereo not drawn) [Synthesis Example 5]
≥ 80%: Plutella xylostella; 48 h | [1]; 48 h | Spodoptera litura; 48 h

O=C(NC(=O)C1CC1)c1ccc(C2=NOC(c3cc(Cl)cc(C(F)(F)F)c3)(C(F)(F)F)C2)c2ccccc12 (stereo not drawn) [Synthesis Example 6]
≥ 80%: Plutella xylostella; 48 h | [1]; 48 h | Spodoptera litura; 48 h

O=C(NC(=O)C1CC1)c1ccc(C2=NOC(c3cc(Cl)cc(C(F)(F)F)c3)(C(F)(F)F)C2)cc1Br (stereo not drawn) [Synthesis Example 8]
≥ 80%: Plutella xylostella; 48 h | [1]; 48 h | Spodoptera litura; 48 h

O=C(NC(=O)C1CC1)c1ccc(C2=NOC(c3cc(Cl)cc(C(F)(F)F)c3)(C(F)(F)F)C2)cc1Cl (stereo not drawn) [Synthesis Example 9]
≥ 80%: Plutella xylostella; 48 h | [1]; 48 h | Spodoptera litura; 48 h

O=C(NC(=O)C1CC1)c1ccc(C2=NOC(c3cc(Cl)cc(C(F)(F)F)c3)(C(F)(F)F)C2)cn1 (stereo not drawn) [Synthesis Example 10]
≥ 80%: Plutella xylostella; 48 h | [1]; 48 h | Spodoptera litura; 48 h

Cc1cc(C2=NOC(c3cc(Cl)cc(C(F)(F)F)c3)(C(F)(F)F)C2)ccc1C(=O)N(C)C(=O)C1CC1 (stereo not drawn) [Synthesis Example 11]
≥ 80%: Plutella xylostella; 48 h | [1]; 48 h | Spodoptera litura; 48 h

CN(C(=O)c1ccc(C2=NOC(c3cc(Cl)cc(C(F)(F)F)c3)(C(F)(F)F)C2)c2ccccc12)C(=O)C1CC1 (stereo not drawn) [Synthesis Example 12]
≥ 80%: Plutella xylostella; 48 h | [1]; 48 h | Spodoptera litura; 48 h

Cc1cc(C2=NOC(c3cc(Cl)cc(Cl)c3)(C(F)(F)F)C2)ccc1C(=O)N(C)C(=O)C1CC1 (stereo not drawn) [Synthesis Example 13]
≥ 80%: Plutella xylostella; 48 h | [1]; 48 h | Spodoptera litura; 48 h

CN(C(=O)c1ccc(C2=NOC(c3cc(Cl)cc(Cl)c3)(C(F)(F)F)C2)c2ccccc12)C(=O)C1CC1 (stereo not drawn) [Synthesis Example 14]
≥ 80%: Plutella xylostella; 48 h | [1]; 48 h | Spodoptera litura; 48 h

O=C(c1ccc(C2=NOC(c3cc(Cl)cc(C(F)(F)F)c3)(C(F)(F)F)C2)c2ccccc12)N(CCF)C(=O)C1CC1 (stereo not drawn) [Synthesis Example 17]
≥ 80%: Plutella xylostella; 48 h | [1]; 48 h | Spodoptera litura; 48 h

Cc1ccc(C(=O)N(C)C(=O)c2ccc(C3=NOC(c4cc(Cl)cc(C(F)(F)F)c4)(C(F)(F)F)C3)cc2C)o1 (stereo not drawn) [Synthesis Example 18]
≥ 80%: Plutella xylostella; 48 h | [1]; 48 h | Spodoptera litura; 48 h

CCN(C(=O)c1ccc(C2=NOC(c3cc(Cl)cc(C(F)(F)F)c3)(C(F)(F)F)C2)cc1C)C(=O)C1CC1 (stereo not drawn) [Synthesis Example 19]
≥ 80%: Plutella xylostella; 48 h | [1]; 48 h | Spodoptera litura; 48 h

Cc1cc(C2=NOC(c3cc(Cl)cc(C(F)(F)F)c3)(C(F)(F)F)C2)ccc1C(=O)N(CC(F)(F)F)C(=O)C1CC1 (stereo not drawn) [Synthesis Example 20]
≥ 80%: Plutella xylostella; 48 h | [1]; 48 h | Spodoptera litura; 48 h

Cc1cc(C2=NOC(c3cc(Cl)cc(C(F)(F)F)c3)(C(F)(F)F)C2)ccc1C(=O)N(CC1CC1)C(=O)C1CC1 (stereo not drawn) [Synthesis Example 21]
≥ 80%: Plutella xylostella; 48 h | [1]; 48 h | Spodoptera litura; 48 h

Cc1cc(C2=NOC(c3cc(Cl)cc(C(F)(F)F)c3)(C(F)(F)F)C2)ccc1C(=O)N(C(=O)C1CC1)C(=O)C1CC1 (stereo not drawn) [Synthesis Example 22]
≥ 80%: Plutella xylostella; 48 h | [1]; 48 h | Spodoptera litura; 48 h

Cc1cc(C2=NOC(c3cc(Cl)cc(C(F)(F)F)c3)(C(F)(F)F)C2)ccc1C(=O)N(C(=O)C1CC1)C1CC1 (stereo not drawn) [Synthesis Example 23]
≥ 80%: Plutella xylostella; 48 h | [1]; 48 h | Spodoptera litura; 48 h

Cc1cc(C2=NOC(c3cc(Cl)cc(Cl)c3)(C(F)(F)F)C2)ccc1C(=O)NC(=O)C1(C)CC1 (stereo not drawn) [Synthesis Example 24]
≥ 80%: Plutella xylostella; 48 h | [1]; 48 h | Spodoptera litura; 48 h

Cc1cc(C2=NOC(c3cc(Cl)cc(C(F)(F)F)c3)(C(F)(F)F)C2)ccc1C(=O)NC(=O)C1(C)CC1 (stereo not drawn) [Synthesis Example 25]
≥ 80%: Plutella xylostella; 48 h | [1]; 48 h | Spodoptera litura; 48 h

Cc1cc(C2=NOC(c3cc(Cl)cc(Cl)c3)(C(F)(F)F)C2)ccc1C(=O)NC(=O)C1(C#N)CC1 (stereo not drawn) [Synthesis Example 26]
≥ 80%: Plutella xylostella; 48 h | [1]; 48 h | Spodoptera litura; 48 h

Cc1cc(C2=NOC(c3cc(Cl)cc(C(F)(F)F)c3)(C(F)(F)F)C2)ccc1C(=O)NC(=O)C1(C#N)CC1 (stereo not drawn) [Synthesis Example 27]
≥ 80%: Plutella xylostella; 48 h | [1]; 48 h | Spodoptera litura; 48 h

Cc1cc(C2=NOC(c3cc(Cl)cc(Cl)c3)(C(F)(F)F)C2)ccc1C(=O)NC(=O)C1(C(F)(F)F)CC1 (stereo not drawn) [Synthesis Example 28]
≥ 80%: Plutella xylostella; 48 h | [1]; 48 h | Spodoptera litura; 48 h

Cc1cc(C2=NOC(c3cc(Cl)cc(C(F)(F)F)c3)(C(F)(F)F)C2)ccc1C(=O)NC(=O)C1(C(F)(F)F)CC1 (stereo not drawn) [Synthesis Example 29]
≥ 80%: Plutella xylostella; 48 h | [1]; 48 h | Spodoptera litura; 48 h

Cc1cc(C2=NOC(c3cc(Cl)cc(Cl)c3)(C(F)(F)F)C2)ccc1C(=O)NC(=O)C1(C)CC1(F)F (stereo not drawn) [Synthesis Example 30]
≥ 80%: Plutella xylostella; 48 h | [1]; 48 h | Spodoptera litura; 48 h

Cc1cc(C2=NOC(c3cc(Cl)cc(C(F)(F)F)c3)(C(F)(F)F)C2)ccc1C(=O)NC(=O)C1(C)CC1(F)F (stereo not drawn) [Synthesis Example 31]
≥ 80%: Plutella xylostella; 48 h | [1]; 48 h | Spodoptera litura; 48 h

Cc1cc(C2=NOC(c3cc(Cl)cc(Cl)c3)(C(F)(F)F)C2)ccc1C(=O)NC(=O)C1CCC1 (stereo not drawn) [Synthesis Example 32]
≥ 80%: Plutella xylostella; 48 h | [1]; 48 h | Spodoptera litura; 48 h
